Consider 30 compounds from patent US20230348376A1 (TEIJIN PHARMA LIMITED, priority 2020, published 2023).

One experiment has as its target T1, human VDR (Homo sapiens, UniProt P11473).
T1 sequence (P11473 1-427): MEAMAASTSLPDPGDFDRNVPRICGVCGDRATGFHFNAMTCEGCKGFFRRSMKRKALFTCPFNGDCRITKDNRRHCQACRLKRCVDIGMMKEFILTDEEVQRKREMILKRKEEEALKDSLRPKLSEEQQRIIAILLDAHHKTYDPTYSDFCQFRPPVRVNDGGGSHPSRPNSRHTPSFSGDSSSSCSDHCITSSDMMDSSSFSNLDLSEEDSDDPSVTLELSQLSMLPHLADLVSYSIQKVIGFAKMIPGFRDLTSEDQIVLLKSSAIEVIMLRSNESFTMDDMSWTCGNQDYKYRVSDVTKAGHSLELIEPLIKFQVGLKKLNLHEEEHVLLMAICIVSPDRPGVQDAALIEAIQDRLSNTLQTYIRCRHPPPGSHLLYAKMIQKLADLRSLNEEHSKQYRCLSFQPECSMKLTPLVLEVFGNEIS
T1 sequence (P19793 1-462 partner): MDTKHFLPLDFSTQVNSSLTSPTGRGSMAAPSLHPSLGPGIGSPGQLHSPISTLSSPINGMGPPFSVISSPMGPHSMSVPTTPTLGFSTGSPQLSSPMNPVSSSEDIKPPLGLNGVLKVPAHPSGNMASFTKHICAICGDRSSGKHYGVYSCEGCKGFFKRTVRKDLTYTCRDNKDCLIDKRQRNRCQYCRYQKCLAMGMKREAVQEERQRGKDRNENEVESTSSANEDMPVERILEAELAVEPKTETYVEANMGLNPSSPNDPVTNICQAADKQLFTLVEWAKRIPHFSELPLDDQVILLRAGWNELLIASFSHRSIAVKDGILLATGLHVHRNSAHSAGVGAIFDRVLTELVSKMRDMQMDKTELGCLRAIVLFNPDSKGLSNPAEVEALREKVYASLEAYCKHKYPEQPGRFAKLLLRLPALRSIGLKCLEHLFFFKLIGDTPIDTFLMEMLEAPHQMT
As to the kind of experiment: Evaluation of VDR transcription activity in human osteoblasts (HOS cells), luciferase reporter. Conditions: Activity (EC50, VDR transcription activity), HOS cells transfected with human VDR, human RXRα and DR3 luciferase reporter; 21 hours. For orientation: Reporter assays use an easily measured gene product as a stand-in for the process of interest.
By EC50 is commonly meant the midpoint of the concentration-response curve. In turn, `C=C1/C(=C\C=C2/CCC[C@]3(C)[C@@H]([C@H](C)CN4CCC(O)(C(F)(F)F)C4)CC[C@@H]23)C[C@@H](O)C[C@@H]1O` (single isomer, unassigned) [Compound B044a] came in with a 50% effective concentration (EC50) below 1 nM. `C=C1[C@H](O)CC(=C/C=C2\CCC[C@]3(C)[C@@H]([C@H](C)CN4CCC(O)(C(F)(F)F)C4)CC[C@@H]23)C[C@H]1O` (single isomer, unassigned) [Compound B046a] returned an EC50 below 1 nM. Same read-out and setting: the result for `C=C1/C(=C\C=C2/CCC[C@]3(C)[C@@H]([C@H](C)CN4CCCC(O)(C(F)(F)F)C4)CC[C@@H]23)C[C@@H](O)C[C@@H]1O` (single isomer, unassigned) [Compound C030b] reads 1 to 10 nM; that for `C=C1/C(=C\C=C2/CCC[C@]3(C)[C@@H]([C@H](C)CN4CCCC(O)(C(F)(F)F)C4)CC[C@@H]23)C[C@@H](O)[C@H](C)[C@@H]1O` (single isomer, unassigned) [Compound C031a], below 1 nM; that for `C=C1/C(=C\C=C2/CCC[C@]3(C)[C@@H]([C@H](C)CN4CCCC(O)(C(F)(F)F)C4)CC[C@@H]23)C[C@@H](O)[C@H](C)[C@@H]1O` (single isomer, unassigned) [Compound C031b], 1 to 10 nM. On the same count and under the same terms, the figure for `C=C1/C(=C\C=C2/CCC[C@]3(C)[C@@H]([C@@H](C)CN4CCCC(O)(C(F)(F)F)C4)CC[C@@H]23)C[C@@H](O)C[C@@H]1O` (single isomer, unassigned) [Compound C033a] is below 1 nM.

Take `C=C1/C(=C\C=C2/CCC[C@]3(C)[C@@H]([C@@H](C)CN4CCCC(O)(C(F)(F)F)C4)CC[C@@H]23)C[C@@H](O)C[C@@H]1O` (single isomer, unassigned) [Compound C033b]: the EC50 lay in the range of 1 to 10 nM. The same measure, in the same setting: the figure for `C=C1/C(=C\C=C2/CCC[C@]3(C)[C@@H]([C@H](C)CN4CCCC(O)(C(F)F)C4)CC[C@@H]23)C[C@@H](O)C[C@@H]1O` (single isomer, unassigned) [Compound C034a] is below 1 nM; for `C=C1/C(=C\C=C2/CCC[C@]3(C)[C@@H]([C@H](C)CN4CCCC(O)(C(F)F)C4)CC[C@@H]23)C[C@@H](O)C[C@@H]1O` (single isomer, unassigned) [Compound C034b] it is 10 to 100 nM; for `C[C@H](CN1CCCC(O)(C(F)F)C1)[C@H]1CC[C@H]2/C(=C/C=C3C[C@@H](O)C[C@H](O)C3)CCC[C@]12C` (single isomer, unassigned) [Compound C035b] it is 10 to 100 nM. On the same count and under the same terms, the figure for `C=C1/C(=C\C=C2/CCC[C@]3(C)[C@@H]([C@H](C)CN4CCCC(C)(O)C4)CC[C@@H]23)C[C@@H](O)C[C@@H]1O` (single isomer, unassigned) [Compound C037a] is below 1 nM; for `C=C1/C(=C\C=C2/CCC[C@]3(C)[C@@H]([C@H](C)CN4CCCC(C)(O)C4)CC[C@@H]23)C[C@@H](O)C[C@@H]1O` (single isomer, unassigned) [Compound C037b] it is 10 to 100 nM; for `C=C1/C(=C\C=C2/CCC[C@]3(C)[C@@H]([C@H](C)CN4CCCC(O)(CC)C4)CC[C@@H]23)C[C@@H](O)C[C@@H]1O` (single isomer, unassigned) [Compound C042a] it is below 1 nM. Same read-out and setting: the result for `C=C1/C(=C\C=C2/CCC[C@]3(C)[C@@H]([C@H](C)CN4CCCC(C)(OC)C4)CC[C@@H]23)C[C@@H](O)C[C@@H]1O` (single isomer, unassigned) [Compound C043a] reads 1 to 10 nM; that for `C=C1/C(=C\C=C2/CCC[C@]3(C)[C@@H]([C@H](C)CN4CCCC(C)(OC)C4)CC[C@@H]23)C[C@@H](O)C[C@@H]1O` (single isomer, unassigned) [Compound C043b], 100 to 1000 nM; that for `CCC1(O)CCCN(C[C@@H](C)[C@H]2CC[C@H]3/C(=C/C=C4C[C@@H](O)C[C@H](O)C4)CCC[C@]23C)C1` (single isomer, unassigned) [Compound C044a], 10 to 100 nM. For the compound `CCC1(O)CCCN(C[C@@H](C)[C@H]2CC[C@H]3/C(=C/C=C4C[C@@H](O)C[C@H](O)C4)CCC[C@]23C)C1` (single isomer, unassigned) [Compound C044b], the concentration for a half-maximal effect (EC50) was in the range of 100 to 1000 nM. Still for that read-out and setting: the result for `C=C1[C@H](O)CC(=C/C=C2\CCC[C@]3(C)[C@@H]([C@H](C)CN4CCCC(O)(CC)C4)CC[C@@H]23)C[C@H]1O` (single isomer, unassigned) [Compound C046a] reads below 1 nM. Still for that read-out and setting: the figure for `C=C1[C@H](O)CC(=C/C=C2\CCC[C@]3(C)[C@@H]([C@H](C)CN4CCCC(O)(CC)C4)CC[C@@H]23)C[C@H]1O` (single isomer, unassigned) [Compound C046b] is 1 to 10 nM; for `C=C1[C@H](O)CC(=C/C=C2\CCC[C@]3(C)[C@@H]([C@H](C)CN4CCCC(C)(OC)C4)CC[C@@H]23)C[C@H]1O` (single isomer, unassigned) [Compound C047a] it is 1 to 10 nM; for `C=C1[C@H](O)CC(=C/C=C2\CCC[C@]3(C)[C@@H]([C@H](C)CN4CCCC(C)(OC)C4)CC[C@@H]23)C[C@H]1O` (single isomer, unassigned) [Compound C047b] it is 10 to 100 nM. Same read-out and setting: the figure for `C=C1/C(=C\C=C2/CCC[C@]3(C)[C@@H]([C@H](C)CN4CCOC(C(F)(F)F)C4)CC[C@@H]23)C[C@@H](O)[C@H](C)[C@@H]1O` (single isomer, unassigned) [Compound D009a] is 1 to 10 nM; for `C=C1/C(=C\C=C2/CCC[C@]3(C)[C@@H]([C@H](C)CN4CCOC(C(F)(F)F)C4)CC[C@@H]23)C[C@@H](O)[C@H](C)[C@@H]1O` (single isomer, unassigned) [Compound D009b] it is 10 to 100 nM; for `C=C1/C(=C\C=C2/CCC[C@]3(C)[C@@H](C(C)CN4CC(F)C4)CC[C@@H]23)C[C@@H](O)C[C@@H]1O` (stereo in doubt) [Compound A001, (1R,3S,Z)-5-(2-((1R,3aS,7aR,E)-1-((R)-1-(3-fluoroazetidin-1-yl)propan-2-yl)-7a-methyloctahydro-4H-inden-4-ylidene)ethylidene)-4-methylenecyclohexane-1,3-diol] it is 100 to 1000 nM. As to `C=C1C(O)CC(=C/C=C2\CCC[C@]3(C)[C@@H]([C@H](C)CN4CC[C@@H](OC(F)(F)F)C4)CC[C@@H]23)C[C@H]1O` (stereo in doubt) [Compound B068, (1R,3S)-5-(2-((1R,3aS,7aR,E)-7a-methyl-1-((S)-1-((R)-3-(trifluoromethoxy)pyrrolidin-1-yl)propan-2-yl)octahydro-4H-inden-4-ylidene)ethylidene)-2-methylenecyclohexane-1,3-diol], the concentration for a half-maximal effect (EC50) fell in the range of 1 to 10 nM.

Take `C[C@H](CN1CC[C@H](OC(F)(F)F)C1)[C@H]1CC[C@H]2/C(=C/C=C3CC(O)C[C@H](O)C3)CCC[C@]12C` (stereo in doubt) [Compound B069, (1R,3S)-5-(2-((1R,3aS,7aR,E)-7a-methyl-1-((S)-1-((S)-3-(trifluoromethoxy)pyrrolidin-1-yl)propan-2-yl)octahydro-4H-inden-4-ylidene)ethylidene)cyclohexane-1,3-diol]: the EC50 was in the range of 10 to 100 nM. Same read-out and setting: the result for `C[C@H](CN1CC[C@](C)(O)C1)[C@H]1CC[C@H]2/C(=C/C=C3CC(O)C[C@H](O)C3)CCC[C@]12C` (stereo in doubt) [Compound B072, (1R,3 S)-5-(2-((1R,3aS,7aR,E)-1-((S)-1-((S)-3-hydroxy-3-methylpyrrolidin-1-yl)propan-2-yl)-7a-methyloctahydro-4H-inden-4-ylidene)ethylidene)cyclohexane-1,3-diol] reads 10 to 100 nM; that for `C[C@H](CN1CC[C@@](C)(O)C1)[C@H]1CC[C@H]2/C(=C/C=C3CC(O)C[C@H](O)C3)CCC[C@]12C` (stereo in doubt) [Compound B075, (1R,3S)-5-(2-((1R,3aS,7aR,E)-1-((S)-1-((R)-3-hydroxy-3-methylpyrrolidin-1-yl)propan-2-yl)-7a-methyloctahydro-4H-inden-4-ylidene)ethylidene)cyclohexane-1,3-diol], 100 to 1000 nM.

The experiment is the same for the next values; noted with them: read-out: Activity (EC50, VDR transcription activity); HOS cells transfected with human VDR, human RXRα and DR3 luciferase reporter; 21 hours.
Consider `C=C1/C(=C\C=C2/CCC[C@]3(C)[C@@H]([C@H](C)CN4CCC(O)(C(F)(F)F)C4)CC[C@@H]23)C[C@@H](O)C[C@@H]1O` (single isomer, unassigned) [Compound B044b], for which the EC50 was below 1 nM.

With `C=C1[C@H](O)CC(=C/C=C2\CCC[C@]3(C)[C@@H]([C@H](C)CN4CCC(O)(C(F)(F)F)C4)CC[C@@H]23)C[C@H]1O` (single isomer, unassigned) [Compound B046b], the EC50 was below 1 nM.
